Assay results reported in patent US7858635B2 (priority 2005, dated 2010).
Like-named read-outs stand apart in the source and are kept apart here.

What was measured:
M1 muscarinic receptor = molecular target: T1, M1 muscarinic receptor (Homo sapiens, UniProt P11229); assay: Functional mobilization of intracellular calcium (FLIPR, Fluo-3), M1-CHO cells; format: cell-based; conditions: for Emax: read-out: M1 Efficacy
T1 construct: expressed in transfected cells; host or cells: CHO cells (M1-CHO, under zeocin and G418 selection)
T1 sequence (P11229 1-460): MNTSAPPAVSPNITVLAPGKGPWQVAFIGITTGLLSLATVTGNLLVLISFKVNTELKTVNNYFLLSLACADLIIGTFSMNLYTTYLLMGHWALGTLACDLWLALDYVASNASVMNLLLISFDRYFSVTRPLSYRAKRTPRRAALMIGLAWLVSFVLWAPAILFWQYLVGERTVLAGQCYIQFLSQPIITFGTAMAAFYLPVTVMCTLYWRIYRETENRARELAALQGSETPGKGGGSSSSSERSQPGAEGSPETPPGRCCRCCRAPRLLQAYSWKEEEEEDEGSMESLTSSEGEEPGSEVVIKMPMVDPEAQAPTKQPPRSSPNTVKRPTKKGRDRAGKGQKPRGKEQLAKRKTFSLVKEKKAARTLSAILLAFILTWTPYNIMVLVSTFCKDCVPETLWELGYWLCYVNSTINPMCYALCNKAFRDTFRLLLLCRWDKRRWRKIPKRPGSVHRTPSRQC
Procedure, shortened: (§1)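 Intracellular calcium was tracked by fluorescence (488/540 nm) over 60 sec after compound addition to dye-loaded CHO cells expressing the receptor. Inhibitory activity used a 15 min pre-incubation before carbachol at the subtype EC80.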

M4 muscarinic receptor = molecular target: T2, M4 muscarinic receptor (Homo sapiens, UniProt P08173); assay: Functional mobilization of intracellular calcium (FLIPR, Fluo-3), M4-CHO cells; format: cell-based; conditions: for Emax: read-out: M4 Efficacy
T2 construct: expressed in transfected cells; host or cells: CHO cells (M4-CHO, under puromycin, zeocin and blasticidin selection)
T2 sequence (P08173 1-479): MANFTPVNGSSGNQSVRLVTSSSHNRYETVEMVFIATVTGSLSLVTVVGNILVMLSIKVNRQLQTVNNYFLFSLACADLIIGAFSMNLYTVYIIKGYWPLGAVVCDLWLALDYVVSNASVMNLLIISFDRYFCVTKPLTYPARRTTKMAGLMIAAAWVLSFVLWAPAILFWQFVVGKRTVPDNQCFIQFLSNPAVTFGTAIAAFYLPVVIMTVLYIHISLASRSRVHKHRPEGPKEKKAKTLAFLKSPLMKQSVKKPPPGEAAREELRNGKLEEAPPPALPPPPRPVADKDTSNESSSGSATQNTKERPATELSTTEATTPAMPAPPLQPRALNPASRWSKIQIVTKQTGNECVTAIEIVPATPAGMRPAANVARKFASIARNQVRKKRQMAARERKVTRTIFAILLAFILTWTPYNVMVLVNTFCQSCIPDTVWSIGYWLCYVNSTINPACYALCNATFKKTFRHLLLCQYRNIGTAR
Procedure, shortened: as §1

[1] = compound nos. 1-454, 100% efficacy is the maximum response obtained with the Carbachol control
[2] = compound nos. 1-454, M1-CHO cells, calcium mobilization
[3] = compound nos. 1-454, M4-CHO cells, calcium mobilization
[4] = compound nos. 455-509, 100% efficacy is the maximum response obtained with the Carbachol control

Row | SMILES | Emax (M1 muscarinic receptor; [1]) | M1 Activity (M1 muscarinic receptor; [2]) | Emax (M4 muscarinic receptor; [1]) | M4 Activity (M4 muscarinic receptor; [3]) | other results
1 | Fc1ccc2c(c1)C1(CCN(CC3CC4C=CC3C4)CC1)CN2 (stereo not shown) [compound 183] | 65 to 85% | ++ (activity was measured to be between 0.7 μM and 3.0 μM) | 55 to 70% | + (activity was measured to be greater than or equal to 4.0 μM) | 
2 | CCOC(=O)N1CCC(CN2CCC3(CC2)C[C@H](NC(C)=O)c2ccccc23)CC1 [compound 250] | 65 to 85% | ++ (activity was measured to be between 0.7 μM and 3.0 μM) | 55 to 70% | + (activity was measured to be greater than or equal to 4.0 μM) | 
3 | CCOC(=O)N1C2CCC1CC(N1CCC3(CC1)CC(=O)Nc1ccccc13)C2 (stereo not shown) [compound 56] | 65 to 85% | +++ (activity was measured to be less than or equal to 0.7 μM) | 55 to 70% | +++ (activity was measured to be less than or equal to 0.1 μM) | 
4 | CC(=O)NC1CC2(CCN(C[C@H]3C[C@H]4CC[C@H]3C4)CC2)c2ccccc21 (stereo partly shown) [compound 161] | > 85% | ++ (activity was measured to be between 0.7 μM and 3.0 μM) | > 70% | + (activity was measured to be greater than or equal to 4.0 μM) | 
5 | Cc1ccc2c(c1)C1(CCN([C@@H]3C[C@@H]4CC[C@@H]3C4)CC1)CN2 [compound 23] |  | ++ (activity was measured to be between 0.7 μM and 3.0 μM) |  | + (activity was measured to be greater than or equal to 4.0 μM) | M1 Efficacy (M1 muscarinic receptor; [1]): + (efficacy was calculated to be 65% or less); M4 Efficacy (M4 muscarinic receptor; [1]): + (efficacy was calculated to be 55% or less)
6 | CC(=O)NC1CC2(CCN(C3CCCCCC3)CC2)c2ccccc21 (stereo not shown) [compound 159] | > 85% | ++ (activity was measured to be between 0.7 μM and 3.0 μM) | > 70% | + (activity was measured to be greater than or equal to 4.0 μM) | 
7 | CCOC(=O)N1CCC(N2CCC3(CC2)CN(C(=O)OCC(C)(C)C)c2ccc(F)cc23)CC1 [compound 63] | < 65% | +++ (activity was measured to be less than or equal to 0.7 μM) | < 55% | + (activity was measured to be greater than or equal to 4.0 μM) | 
8 | CCOC(=O)N1C2CCC1CC(N1CCC3(CC1)COc1ccc(F)cc13)C2 (stereo not shown) [compound 42] | > 85% | +++ (activity was measured to be less than or equal to 0.7 μM) | > 70% | ++ (activity was measured to be between 0.1 μM and 4.0 μM) | 
9 | Clc1ccc2c(c1)C1(CCN(CC3CCCCC3)CC1)CN2 [compound 157] | 65 to 85% | +++ (activity was measured to be less than or equal to 0.7 μM) | > 70% | + (activity was measured to be greater than or equal to 4.0 μM) | 
10 | O=C(C1CCC1)N1C2CCC1CC(N1CCC3(CC1)COc1ccc(F)cc13)C2 (stereo not shown) [compound 134] | > 85% | +++ (activity was measured to be less than or equal to 0.7 μM) | < 55% | ++ (activity was measured to be between 0.1 μM and 4.0 μM) | 
11 | CS(=O)(=O)N1CC2(CCN(C3CC4CCC(C3)N4C(=O)O[C@H]3CCOC3)CC2)c2cc(F)ccc21 (stereo partly shown) [compound 388] | 65 to 85% |  | < 55% |  | M1 Activity (M1 muscarinic receptor; compound nos. 1-454): +++ (activity was measured to be less than or equal to 0.7 μM); M4 Activity (M4 muscarinic receptor; compound nos. 1-454): + (activity was measured to be greater than or equal to 4.0 μM)
12 | CC(=O)N1CC2(CCN(C3CCN(C(=O)OCCF)C3)CC2)c2cc(F)ccc21 (stereo not shown) [compound 394] | < 65% |  | < 55% |  | M1 Activity (M1 muscarinic receptor; compound nos. 1-454): +++ (activity was measured to be less than or equal to 0.7 μM); M4 Activity (M4 muscarinic receptor; compound nos. 1-454): ++ (activity was measured to be between 0.1 μM and 4.0 μM)
13 | CN(C)C(=O)N1CC2(CCN(C3CCN(c4cnc5ccccc5n4)CC3)CC2)c2ccccc21 [compound 497] |  |  |  |  | Emax (M1 muscarinic receptor; [4]): > 100%; M1 Activity (M1 muscarinic receptor; compounds 455-509): +++ (activity was measured to be less than or equal to 2.0 μM); Emax (M4 muscarinic receptor; [4]): 25 to 100%; M4 Activity (M4 muscarinic receptor; compounds 455-509): ++ (activity was measured to be between 2.0 μM and 5.0 μM)
14 | CC(=O)N[C@H]1CC2(CCN(CC3CC4CCC3CC4)CC2)c2ccccc21 (stereo partly shown) [compound 29] | > 85% | +++ (activity was measured to be less than or equal to 0.7 μM) | > 70% | +++ (activity was measured to be less than or equal to 0.1 μM) | 
15 | CC(=O)N1CC2(CCN(C3CCN(C(=O)OCCF)CC3)CC2)c2cc(F)ccc21 [compound 172] | > 85% | + (activity was measured to be greater than or equal to 3.0 μM) | 55 to 70% | + (activity was measured to be greater than or equal to 4.0 μM) | 
16 | CC(=O)N1CC2(CCN(C3CCC[C@@H](C)C3)CC2)c2cc(F)ccc21 (stereo partly shown) [compound 240] | 65 to 85% | ++ (activity was measured to be between 0.7 μM and 3.0 μM) | > 70% | + (activity was measured to be greater than or equal to 4.0 μM) | 
17 | CCOC(=O)N1CCC(N2CCC3(CC2)CN(C(=O)C2CC2)c2ccc(F)cc23)CC1 [compound 136] | > 85% | +++ (activity was measured to be less than or equal to 0.7 μM) | > 70% | +++ (activity was measured to be less than or equal to 0.1 μM) | 
18 | CCc1nsc(N2CCC(N3CCC4(CC3)C[C@H](N(CCOC)C(C)=O)c3ccccc34)CC2)n1 [compound 505] |  |  |  |  | Emax (M1 muscarinic receptor; [4]): > 100%; M1 Activity (M1 muscarinic receptor; compounds 455-509): +++ (activity was measured to be less than or equal to 2.0 μM); Emax (M4 muscarinic receptor; [4]): 25 to 100%; M4 Activity (M4 muscarinic receptor; compounds 455-509): ++ (activity was measured to be between 2.0 μM and 5.0 μM)
19 | Fc1ccc2c(c1)C1(CCN(C3CCC4CCC3C4)CC1)CN2 (stereo not shown) [compound 111] | 65 to 85% | +++ (activity was measured to be less than or equal to 0.7 μM) | < 55% | ++ (activity was measured to be between 0.1 μM and 4.0 μM) | 
20 | CC(=O)N1CC2(CCN(C3CCN(C(=O)O[C@@H]4CCOC4)CC3)CC2)c2cc(F)ccc21 [compound 424] | < 65% |  | < 55% |  | M1 Activity (M1 muscarinic receptor; compound nos. 1-454): + (activity was measured to be greater than or equal to 3.0 μM); M4 Activity (M4 muscarinic receptor; compound nos. 1-454): + (activity was measured to be greater than or equal to 4.0 μM)
21 | CCOC(=O)N1CCC(N2CCC3(CC2)CN(CC(C)=O)c2ccc(F)cc23)CC1 [compound 249] | 65 to 85% | + (activity was measured to be greater than or equal to 3.0 μM) | 55 to 70% | + (activity was measured to be greater than or equal to 4.0 μM) | 
22 | Clc1ccc2c(c1)C1(CCN(C3CCOCC3)CC1)CO2 [compound 257] | > 85% | + (activity was measured to be greater than or equal to 3.0 μM) | < 55% | + (activity was measured to be greater than or equal to 4.0 μM) | 
23 | CCCc1ccc2c(c1)C1(CCN(C3CCN(C(=O)OCC)CC3)CC1)CN2C(C)=O [compound 74] | 65 to 85% | +++ (activity was measured to be less than or equal to 0.7 μM) | 55 to 70% | ++ (activity was measured to be between 0.1 μM and 4.0 μM) | 
24 | CC(=O)CN1CC2(CCN(C[C@@H]3C[C@H]4C=C[C@H]3C4)CC2)c2cc(F)ccc21 [compound 385] | 65 to 85% |  | < 55% |  | M1 Activity (M1 muscarinic receptor; compound nos. 1-454): ++ (activity was measured to be between 0.7 μM and 3.0 μM); M4 Activity (M4 muscarinic receptor; compound nos. 1-454): + (activity was measured to be greater than or equal to 4.0 μM)
25 | Cc1ncc(N2CCC(N3CCC4(CCN(C(=O)N(C)C)c5ccccc54)CC3)CC2)nc1C [compound 461] |  |  |  |  | Emax (M1 muscarinic receptor; [4]): > 100%; M1 Activity (M1 muscarinic receptor; compounds 455-509): ++ (activity was measured to be between 2.0 μM and 5.0 μM); Emax (M4 muscarinic receptor; [4]): 25 to 100%; M4 Activity (M4 muscarinic receptor; compounds 455-509): ++ (activity was measured to be between 2.0 μM and 5.0 μM)
